Legend:
Assay in all cases: area over the GR curve, 72 h; higher = more effect;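 also: Dye Drop or Deep Dye Drop imaging of viable cells in 384-well plates (Hoechst nuclei, LIVE/DEAD dye), nine half-log doses, GR normalized to DMSO controls and time-zero plates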
[1] = tested on: HCC38
[2] = tested on: HCC70
[3] = tested on: BT549
[4] = tested on: HCC1419
[5] = tested on: MCF7
[6] = tested on: SUM190PT
[7] = tested on: MDAMB415
[8] = tested on: SKBR3
[9] = tested on: CAMA1
[10] = tested on: HS578T
[11] = tested on: SUM52PE
[12] = tested on: MDAMB330

Structure (SMILES)	area over the GR curve [1] [GR]	area over the GR curve [2] [GR]	area over the GR curve [3] [GR]	area over the GR curve [4] [GR]	area over the GR curve [5] [GR]	area over the GR curve [6] [GR]	area over the GR curve [7] [GR]	area over the GR curve [8] [GR]	area over the GR curve [9] [GR]	area over the GR curve [10] [GR]	area over the GR curve [11] [GR]	area over the GR curve [12] [GR]
COc1cc2nccc(Oc3ccc(NC(=O)C4(C(=O)Nc5ccc(F)cc5)CC4)cc3)c2cc1OC [Cabozantinib] (max 10 µM)	0.0283	0.255	0.0035	-0.0617	0.107	0.138	-0.0499	-0.0595	0.0239	0.134	0.249	0
COc1cc2c(Oc3ccc4[nH]c(C)cc4c3F)ncnc2cc1OCCCN1CCCC1 [Cediranib/AZD2171] (max 10 µM)	0.202	0.0746	0.15	0.0482	0.0756	-0.0464	0.246	0.063	0.109	0.394	0.379	0.105
Cc1cc(Nc2ncc(Cl)c(Nc3ccccc3S(=O)(=O)C(C)C)n2)c(OC(C)C)cc1C1CCNCC1 [Ceritinib/LDK378] (max 10 µM)	0.208	0.0676	0.141	0.206	0.457	0.242	0.085	0.301	0.236	0.305	0.0274	0.187
Cc1nc(Nc2ncc(C(=O)Nc3c(C)cccc3Cl)s2)cc(N2CCN(CCO)CC2)n1 [Dasatinib] (max 10 µM)	0.145	1.06	0.237	0.311	0.483	0.32	0.272	-0.0183	0.152	0.71	0.451	0.183
COc1cccc2c1C(=O)c1c(O)c3c(c(O)c1C2=O)C[C@@](O)(C(=O)CO)C[C@@H]3O[C@H]1C[C@H](N)[C@H](O)[C@H](C)O1 [Doxorubicin] (max 3.162 µM)	0.78	0.775	0.76	0.59	0.636	0.403	0.834	0.942	0.843	0.801	0.321	0.716
CO[C@H]1C[C@@H]2CC[C@@H](C)[C@@](O)(O2)C(=O)C(=O)N2CCCC[C@H]2C(=O)O[C@H]([C@H](C)C[C@@H]2CC[C@@H](OCCO)[C@H](OC)C2)CC(=O)[C@H](C)/C=C(\C)[C@@H](O)[C@@H](OC)C(=O)[C@H](C)C[C@H](C)/C=C/C=C/C=C/1C [Everolimus] (max 10 µM)	0.486	0.476	0.439	0.724	0.564	0.571	0.807	0.794	0.767	0.527	0.408	1.28
CCC(=O)Nc1ccc(C(=O)Nc2ccc(Nc3ncc4c(n3)N(C)c3ccc(C)cc3C(=O)N4C)cc2)cc1 [FMF-03-145-1]	0.581	1.31	1.02	0.261	0.957	0.94	0.845	0.464	0.393	1.07	0.91	0.814
COc1cc(N2CCN(C)CC2)ccc1Nc1ncc2c(n1)N(C)c1ccccc1C(=O)N2CC(F)(F)F [FMF-03-146-1]	0.0485	-0.0097	0.0127	0.0393	0.0454	0.101	0.0297	0.0465	-0.0223	0.0103	-0.0411	0.0128
CN1CC[C@H](c2c(O)cc(O)c3c(=O)cc(-c4ccccc4Cl)oc23)[C@H](O)C1 [Flavopiridol] (max 1 µM)	0.29	0.415	0.257	0.225	0.36	0.348	0.284	0.342	0.253	0.254	0.215	0.285
CC(C)n1nc(-c2ccc3oc(N)nc3c2)c2c(N)ncnc21 [INK128/MLN0128] (max 3.162 µM)	0.536	0.702	0.534	0.763	0.726	0.791	0.692	0.971	0.64	0.623	0.572	1.08
CC(C)NC[C@@H](C(=O)N1CCN(c2ncnc3c2[C@H](C)C[C@H]3O)CC1)c1ccc(Cl)cc1 [Ipatasertib/GDC0068] (max 10 µM)	0.122	0.488	0.173	0.0911	0.26	0.0489	0.758	0.152	0.412	0.246	0.0168	0.421
CN(C)C(=O)c1cc2cnc(Nc3ccc(N4CCNCC4)cn3)nc2n1C1CCCC1 [LEE011/Ribociclib] (max 10 µM)	0.417	-0.0535	0.0102	0.293	0.442	0.576	0.613	0.34	0.651	0.351	0.215	0.824
CCNC(=O)c1noc(-c2cc(C(C)C)c(O)cc2O)c1-c1ccc(CN2CCOCC2)cc1 [Luminespib/NVP-AUY922] (max 1 µM)	0.624	0.732	0.612	0.641	0.513	0.728	0.613	0.714	0.535	0.67	0.6	0.887
CCOc1cc2ncc(C#N)c(Nc3ccc(OCc4ccccn4)c(Cl)c3)c2cc1NC(=O)/C=C/CN(C)C [Neratinib/HKI272] (max 3.162 µM)	0.102	0.317	0.0779	0.993	0.142	0.0652	0.0594	0.891	0.0703	0.202	0.0354	1.18
O=C(c1cc(Cc2n[nH]c(=O)c3ccccc23)ccc1F)N1CCN(C(=O)C2CC2)CC1 [Olaparib/AZD2281] (max 10 µM)	0.0719	-0.0522	0.0657	0.018	0.0554	0.0197	-0.0472	0.04	0.0527	0.0997	-0.0471	0.0605
CC(=O)O[C@H]1C(=O)[C@@]2(C)[C@H]([C@H](OC(=O)c3ccccc3)[C@]3(O)C[C@H](OC(=O)[C@H](O)[C@@H](NC(=O)c4ccccc4)c4ccccc4)C(C)=C1C3(C)C)[C@]1(OC(C)=O)CO[C@@H]1C[C@@H]2O [Paclitaxel] (max 1 µM)	0.843	0.977	0.699	0.47	0.772	0.872	0.948	0.89	0.953	0.954	0.898	0.846

Structure (SMILES)	area over the GR curve [1] [GR]	area over the GR curve [2] [GR]	area over the GR curve [3] [GR]	area over the GR curve [4] [GR]	area over the GR curve [5] [GR]	area over the GR curve [6] [GR]	area over the GR curve [7] [GR]	area over the GR curve [8] [GR]	area over the GR curve [9] [GR]	area over the GR curve [10] [GR]	area over the GR curve [11] [GR]	area over the GR curve [12] [GR]
CS(=O)(=O)N1CCN(Cc2cc3nc(-c4cccc5[nH]ncc45)nc(N4CCOCC4)c3s2)CC1 [Pictilisib/GDC0941] (max 10 µM)	0.118	0.573	0.208	0.512	0.506	0.143	0.378	0.512	0.262	0.311	0.364	0.53
O=C1NC(=NCc2cccs2)SC1=Cc1ccc2ncccc2c1 [R0-3306] (max 10 µM)	0.0714	0.0814	0.12	-0.0238	0.0991	0.176	0.0262	0.163	0.0858	0.139	0.0606	0.0605
CNCc1ccc(-c2[nH]c3cc(F)cc4c3c2CCNC4=O)cc1 [Rucaparib] (max 10 µM)	0.139	-0.0415	0.0437	0.0527	0.0771	0.0862	0.11	0.119	0.0981	0.0974	0.0094	0.107
CC1(N)CCN(c2cnc(-c3cccc(Cl)c3Cl)c(N)n2)CC1 [SHP099] (max 10 µM)	0.172	0.074	0.0349	0.0437	0.0308	0.0478	0.0605	0.0253	0.0525	0.142	-0.0423	0.121
CN1CCN(CCOc2cc(OC3CCOCC3)c3c(Nc4c(Cl)ccc5c4OCO5)ncnc3c2)CC1 [Saracatinib/AZD0530] (max 10 µM)	0.101	0.573	0.0348	0.264	0.322	0.181	0.208	-0.0324	0.0262	0.159	0.0817	0.303
Cc1cc(C(C)Nc2ccccc2)c2nc(N3CCOCC3)cc(=O)n2c1 (configuration not stated) [TGX221] (max 10 µM)	-0.0299	0.467	0.0568	-0.0488	-0.0083	-0.0619	0.224	-0.0125	0.0019	0.0668	0.0531	-0.0042
CN(C)C/C=C/C(=O)Nc1ccc(C(=O)Nc2cccc(Nc3ncc(Cl)c(-c4c[nH]c5ccccc45)n3)c2)cc1 [THZ1] (max 1 µM)	0.525	0.762	0.381	0.369	0.514	0.767	0.453	0.673	0.459	0.518	0.527	0.86
CN(C)C/C=C/C(=O)Nc1ccc(C(=O)N2CCC[C@@H](Nc3ncc(Cl)c(-c4c[nH]c5ccccc45)n3)C2)cc1 [THZ531] (max 1 µM)	0.223	0.462	0.174	0.21	0.344	0.501	0.434	0.545	0.241	0.377	0.222	0.747
CN(C)C/C=C/C(=O)Nc1ccc(C(=O)Nc2cccc(Nc3cc(-c4c[nH]c5ccccc45)ncn3)c2)cc1 [THZ-P1-2] (max 10 µM)	0.181	0.326	0.124	0.019	0.292	0.478	0.683	0.154	0.309	-0.017	0.129	0.592
Cc1nc(-c2cn3c(n2)-c2ccc(-c4cnn(C(C)(C)C(N)=O)c4)cc2OCC3)n(C(C)C)n1 [Taselisib/GDC0032] (max 10 µM)	0.202	0.548	0.223	0.852	0.768	0.298	0.516	0.807	0.245	0.374	0.647	1.15
O=C1NC(=O)[C@@H](c2cn3c4c(cccc24)CCC3)[C@@H]1c1c[nH]c2ccccc12 [Tivantinib/ARQ197] (max 10 µM)	0.436	0.474	0.344	0.238	0.453	0.637	0.213	0.479	0.526	0.437	0.411	0.368
Nc1ccc(-c2ccc3ncc4ccc(=O)n(-c5cccc(C(F)(F)F)c5)c4c3c2)cn1 [Torin2] (max 1 µM)	0.538	0.645	0.49	0.634	0.603	0.749	0.627	0.734	0.507	0.566	0.533	0.879
CC[C@@H]1C(=O)N(C)c2cnc(Nc3ccc(C(=O)N[C@H]4CC[C@H](N5CCN(CC6CC6)CC5)CC4)cc3OC)nc2N1C(C)C [Volasertib/BI6727] (max 1 µM)	0.59	0.579	0.568	0.325	0.605	0.621	0.546	0.694	0.674	0.82	0.488	0.778
O=C(CCCCCCC(=O)Nc1ccccc1)NO [Vorinostat] (max 10 µM)	0.284	0.38	0.189	0.148	0.349	0.426	0.172	0.345	0.383	0.269	0.0969	0.271
C=CC(=O)Nc1ccc(C(=O)Nc2[nH]nc3c2CN(C(=O)N[C@H](CN(C)C)c2ccccc2)C3(C)C)cc1 [YKL-5-124] (max 10 µM)	0.928	1.46	0.869	1.01	0.806	0.831	0.664	0.965	0.968	0.815	0.564	0.925

Source: the supplement of paper PMC9663587
